Patent publication US12714706B2, “Methods of treating small cell lung cancer with lurbinectedin formulations” (PHARMA MAR, S.A., priority 2019, dated 2026)
Values after ≈ are worked out from the molar mass of the structure shown. Values joined by “and” are separate entries in the source; they are usually repeats but may differ in a detail not shown here. Identical values can stand only once. Like-named read-outs stand apart in the source and are kept apart here.

Tests used:
[1] = Lurbinectedin plus irinotecan trial: pharmacokinetics of lurbinectedin, irinotecan and SN-38; conditions: combination: lurbinectedin 1.0-2.4 mg/m2 + irinotecan 75 mg/m2; n=39; mean (SD)
[2] = lurbinectedin single agent 3.2 mg/m2 (ref); n=329; mean (SD); cited from earlier work
[3] = physchem; conditions: pH 4, aqueous buffer
Method: (§1) Bulk solutions of phosphate, acetate, citrate, lactate and succinate buffers were prepared to determine maximum solubility of lurbinectedin.

[4] = tested on: advanced solid tumors; test: Phase 1 dose escalation of lurbinectedin plus irinotecan: MTD, RD and dose limiting toxicities; format: in vivo, human
Method: A clinical study of lurbinectedin in combination with irinotecan for patients afflicted with solid tumors was carried out. […] Patients were enrolled following a standard 3+3 dose escalation design. Phase Ib/II expansion part at the recommended dose (RD) was performed to explore efficacy in indications where antitumor activity signal was observed.
Three weeks was defined as one treatment cycle.
Primary outcome measures were (1) maximum tolerated dose (MTD) and (2) recommended dose (RD). MTD was defined as lowest dose explored during dose escalation which one third or more of evaluable patients develop DLT in Cycle 1. RD was defined as highest dose level explored during dose escalation in which fewer than one third of evaluable patients develop DLT during Cycle 1.

[5] = Phase 2 trial of lurbinectedin monotherapy: plasma pharmacokinetics; format: in vivo; conditions: human, intravenous, 3.2 mg/m^2 as 1-hour infusion
Method: The plasma PK of lurbinectedin was evaluated during Cycles 1 and 2 in all treated patients. The sampling schedule is shown in Table 15 and Table 16, respectively.
PK analysis of plasma-concentration-time data of lurbinectedin was performed using non-linear mixed-effects modeling and/or non-compartment analysis.

[6] = tested on: SCLC; test: Post-hoc exploratory analysis of response in SCLC patients who had previously received immunotherapy; format: in vivo, human; conditions: for Lurbinectedin treatment: OS / Lurbinectedin treatment: DoR / Lurbinectedin treatment: PFS: individual SCLC patients with prior immunotherapy
Source text: Post-hoc exploratory analysis was done on the response in patients who had previously received immunotherapy (n=8).

[7] = tested on: patients; conditions: previous analysis, dose based on body surface area; cited from earlier work
[8] = Maximum solubility of lurbinectedin in various buffers pH 4 (impact of buffer molarity)
Method: as §1

[9] = lurbinectedin D1 q3w with irinotecan 75 mg/m2 D1 & D8 q3w
[10] = resistant disease, listed as Lurbinectedin

**Q.** Which HL [1] does the source give for `COc1ccc2[nH]c3c(c2c1)CCN[C@]31CS[C@@H]2c3c(OC(C)=O)c(C)c4c(c3[C@H](COC1=O)N1[C@@H]2[C@H]2c3c(cc(C)c(OC)c3O)C[C@@H]([C@@H]1O)N2C)OCO4` [lurbinectedin, Lurbinectedin] here?
**A.** 44.2 (22.4) h

**Q.** What about the CL [2] of the same compound?
**A.** 12.4 (7.6) L/h

**Q.** What about the Cmax [2] of the same compound?
**A.** 127.5 (100.2) ug/L

**Q.** What about the HL [2] of the same compound?
**A.** 42.6 (38.4) h

**Q.** And the Vz [2]?
**A.** 664.7 (460.3) L

**Q.** What about the solubility ([3]; monopotassium phosphate buffer) of the same compound?
**A.** 210 µg/mL (≈ 268 µM)

**Q.** What about the solubility ([3]; sodium acetate buffer) of the same compound?
**A.** 940 µg/mL (≈ 1200 µM)

**Q.** What about the solubility ([3]; sodium citrate buffer) of the same compound?
**A.** 930 µg/mL (≈ 1180 µM)

**Q.** What about the solubility ([3]; sodium lactate buffer) of the same compound?
**A.** 900 µg/mL (≈ 1150 µM)

**Q.** And the solubility ([3]; sodium succinate buffer)?
**A.** 970 µg/mL (≈ 1240 µM)

**Q.** And the DLTs/Evaluable patients ([4]; Dose Level 1: lurbinectedin 1.0 mg/m2 D1 + irinotecan 75 mg/m2 D1 & D8, q3w)?
**A.** 1/6

**Q.** And the DLTs/Evaluable patients ([4]; Dose Level 2: lurbinectedin 1.5 mg/m2 D1 + irinotecan 75 mg/m2 D1 & D8, q3w)?
**A.** 1/4

**Q.** And the DLTs/Evaluable patients ([4]; Dose Level 3 (without G-CSF): lurbinectedin 2.0 mg/m2 D1 + irinotecan 75 mg/m2 D1 & D8, q3w)?
**A.** 4/11

**Q.** What about the DLTs/Evaluable patients ([4]; Dose Level 3* (with G-CSF): lurbinectedin 2.0 mg/m2 D1 + irinotecan 75 mg/m2 D1 & D8, q3w) of the same compound?
**A.** 3/12

**Q.** And the DLTs/Evaluable patients ([4]; Dose Level 4* (with G-CSF): lurbinectedin 2.4 mg/m2 D1 + irinotecan 75 mg/m2 D1 & D8, q3w)?
**A.** 2/3

**Q.** What about the “MTD with G-CSF (lurbinectedin dose)” value [4, 9] of the same compound?
**A.** 2.4 mg/m2

**Q.** What about the “MTD without G-CSF (lurbinectedin dose)” value [4, 9] of the same compound?
**A.** 2.0 mg/m2

**Q.** And the “RD with G-CSF (lurbinectedin dose)” value [4, 9]?
**A.** 2.0 mg/m2

**Q.** And the AUC(0-inf) [5]?
**A.** ~551 ng·h/mL

**Q.** And the Cmax ([5]; read-out: Mean total plasma Cmax)?
**A.** ~107 ng/mL

**Q.** What about the “Lurbinectedin treatment: OS” value ([6]; resistant disease) of the same compound?
**A.** 12.6 months

**Q.** What about the “Lurbinectedin treatment: DoR” value [6, 10] of the same compound?
**A.** 5.6 months and 5.3 months and 5.1 months

**Q.** What about the “Lurbinectedin treatment: OS” value [6, 10] of the same compound?
**A.** 12.0 months and 4.9 months and 14.9 months and 6.9+ months

**Q.** What about the “Lurbinectedin treatment: PFS” value [6, 10] of the same compound?
**A.** 6.0 months and 1.3 months and 8.3 months and 6.9 months and 6.3 months

**Q.** What about the “Lurbinectedin treatment: DoR” value ([6]; sensitive disease) of the same compound?
**A.** 6.4 months and 2.8 months

**Q.** What about the “Lurbinectedin treatment: OS” value ([6]; sensitive disease) of the same compound?
**A.** 9.3 months and 10.8 months and 2.3 months

**Q.** What about the “Lurbinectedin treatment: PFS” value ([6]; sensitive disease) of the same compound?
**A.** 7.6 months and 4.7 months and 1.3 months

**Q.** What about the “Response to single-agent lurbinectedin in patients who had previously received immunotherapy” value ([6]; post-hoc, n=8) of the same compound?
**A.** trend for a better response

**Q.** And the “Incidence of febrile neutropenia” value [7]?
**A.** lower than 10%

**Q.** What about the Lurbinectedin maximum solubility ([8]; Monopotassium phosphate buffer pH 4, 0.06-01 M) of the same compound?
**A.** 320 µg/mL

**Q.** And the Lurbinectedin maximum solubility ([8]; Sodium acetate buffer pH 4, 0.06-01 M)?
**A.** 860 µg/mL

**Q.** And the Lurbinectedin maximum solubility ([8]; Sodium lactate buffer pH 4, 0.06-01 M)?
**A.** 920 µg/mL
